Assay [1] deals with D(2) dopamine receptor (Rattus norvegicus) (UniProt P61169). As to the kind of experiment: Compound was evaluated for affinity towards dopamine D2-like receptor in homogenate of caudate putamen tissue from rat brain.
The target in another assay is D(1A) dopamine receptor (Rattus norvegicus, UniProt P18901). As to the kind of experiment: ChEBML_59008. On the procedure:
Compound was evaluated for affinity towards dopamine D1-like receptor in homogenate of caudate putamen tissue from rat brain

For assay [2], the target named is T1, 5-hydroxytryptamine receptor 2C (Rattus norvegicus, UniProt P08909).
T1 sequence (P08909 whole entry): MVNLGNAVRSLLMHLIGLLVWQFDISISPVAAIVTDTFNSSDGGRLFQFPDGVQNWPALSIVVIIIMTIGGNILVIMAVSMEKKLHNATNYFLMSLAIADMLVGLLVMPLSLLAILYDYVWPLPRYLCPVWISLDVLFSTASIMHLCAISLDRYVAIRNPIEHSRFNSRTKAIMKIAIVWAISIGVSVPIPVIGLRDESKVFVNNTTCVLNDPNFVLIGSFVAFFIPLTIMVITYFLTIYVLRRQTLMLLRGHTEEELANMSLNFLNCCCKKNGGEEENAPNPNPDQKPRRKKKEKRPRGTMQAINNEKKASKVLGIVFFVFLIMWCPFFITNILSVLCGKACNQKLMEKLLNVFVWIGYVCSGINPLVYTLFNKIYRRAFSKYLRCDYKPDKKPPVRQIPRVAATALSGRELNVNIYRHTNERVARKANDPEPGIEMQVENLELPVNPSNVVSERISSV
As to the kind of experiment: ChEBML_2831. How it is done: Compound was evaluated for affinity towards cerebral 5-hydroxytryptamine 2C receptor in homogenate of caudate putamen tissue from rat brain

In assay [3] the target is 5-hydroxytryptamine receptor 2A (Rattus norvegicus, UniProt P14842). As to the kind of experiment: ChEBML_2648. On the procedure: Compound was evaluated for affinity towards cerebral 5-hydroxytryptamine 2A receptor in homogenate of caudate putamen tissue from rat brain
Sequence of 5-hydroxytryptamine receptor 2A (P14842 whole entry): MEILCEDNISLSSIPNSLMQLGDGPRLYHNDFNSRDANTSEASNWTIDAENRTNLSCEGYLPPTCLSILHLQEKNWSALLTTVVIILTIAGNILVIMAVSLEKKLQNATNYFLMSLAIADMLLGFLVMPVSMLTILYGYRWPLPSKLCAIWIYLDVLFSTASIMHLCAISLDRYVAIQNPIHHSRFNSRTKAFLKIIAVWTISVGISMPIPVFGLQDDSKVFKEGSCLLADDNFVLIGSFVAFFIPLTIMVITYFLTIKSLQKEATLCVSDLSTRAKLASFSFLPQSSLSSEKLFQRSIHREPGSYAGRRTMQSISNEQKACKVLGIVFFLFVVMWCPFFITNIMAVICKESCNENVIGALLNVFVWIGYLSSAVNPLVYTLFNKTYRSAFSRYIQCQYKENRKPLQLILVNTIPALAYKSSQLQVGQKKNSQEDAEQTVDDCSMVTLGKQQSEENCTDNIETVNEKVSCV

The values that follow come from BindingDB's records for doi:10.1016/s0960-894x(00)00185-2 (Yale University, 2000).

Each structure is given as a SMILES string.

Sequence of D(2) dopamine receptor (Rattus norvegicus) (P61169 whole entry, looked up): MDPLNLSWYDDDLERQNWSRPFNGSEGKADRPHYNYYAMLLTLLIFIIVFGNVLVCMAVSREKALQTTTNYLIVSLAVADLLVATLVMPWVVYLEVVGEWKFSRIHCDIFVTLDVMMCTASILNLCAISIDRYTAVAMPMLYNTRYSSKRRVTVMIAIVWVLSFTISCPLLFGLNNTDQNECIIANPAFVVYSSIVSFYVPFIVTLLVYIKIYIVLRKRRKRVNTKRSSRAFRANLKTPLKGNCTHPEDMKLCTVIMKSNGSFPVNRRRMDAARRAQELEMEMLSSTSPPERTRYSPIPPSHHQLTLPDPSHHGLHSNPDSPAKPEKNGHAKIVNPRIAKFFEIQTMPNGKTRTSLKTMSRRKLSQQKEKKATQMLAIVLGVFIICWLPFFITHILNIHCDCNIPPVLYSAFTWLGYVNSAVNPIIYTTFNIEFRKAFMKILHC
Sequence of D(1A) dopamine receptor (P18901 whole entry): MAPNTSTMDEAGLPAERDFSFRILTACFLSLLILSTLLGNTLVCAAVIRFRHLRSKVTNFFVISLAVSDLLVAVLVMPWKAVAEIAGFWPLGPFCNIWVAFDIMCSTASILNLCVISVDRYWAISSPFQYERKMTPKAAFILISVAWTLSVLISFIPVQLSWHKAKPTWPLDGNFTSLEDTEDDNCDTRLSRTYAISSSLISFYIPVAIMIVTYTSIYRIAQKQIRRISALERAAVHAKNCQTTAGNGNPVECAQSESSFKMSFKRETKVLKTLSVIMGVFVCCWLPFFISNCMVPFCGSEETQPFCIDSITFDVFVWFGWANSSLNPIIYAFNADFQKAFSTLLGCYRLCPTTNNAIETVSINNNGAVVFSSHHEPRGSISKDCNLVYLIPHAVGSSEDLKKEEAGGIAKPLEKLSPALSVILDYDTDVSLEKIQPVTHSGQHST

For orientation: Ki means a measure of affinity in units of concentration, obtained from inhibition or displacement. High values mean weaker binding, low ones tighter binding. `CN1CCc2cc(Cl)c(O)cc2C(c2cccc(Br)c2)C1` (centres undefined) [5-(3-Bromo-phenyl)-8-chloro-3-methyl-2,3,4,5-tetrahydro-1H-benzo[d]azepin-7-ol]: the Ki in assay [1] stood at 1120 nM. In other words, the single-digit micromolar range.

On to `CN1CCc2cc(Cl)c(O)cc2C(c2ccccc2C(=O)C2=CC=C[C@@H]2[Re]([CH]=O)([CH]=O)[CH]=O)C1` (some centres undefined) [Cyclopentadienyltricarbonylrheniumbenzazepine (2`-CPTR-SCH-23390)], for which the Ki on D(1A) dopamine receptor amounted to 0.61 nM; in assay [2], 29 nM; in assay [3] it was 17 nM; in assay [1], 549 nM.

As to `CN1CCc2cc(Cl)c(O)cc2C(c2cccc(C(=O)C3=CC=C[C@@H]3[Re]([CH]=O)([CH]=O)[CH]=O)c2)C1` (some centres undefined) [Cyclopentadienyltricarbonylrheniumbenzazepine (3`-CPTR-SCH-23390)], the Ki on D(1A) dopamine receptor was 2.9 nM; in assay [2], 106 nM; in assay [3], 227 nM; in assay [1] it was above 10000 nM.
